In patent US9896481B2, “Modified mini-hepcidin peptides and methods of using thereof” (priority 2011, dated 2018):
Read-outs that look alike come from different tables or passages of the source. One block for each compound: values may come before it. Non-standard residues stand in square brackets, D forms with d. Residues, ends and D or L forms follow the SMILES beside them. *: point of attachment. Ursodeoxycholyl = C[C@H](CCC(=O)*)[C@H]1CC[C@H]2[C@@H]3[C@@H](O)C[C@@H]4C[C@H](O)CC[C@]4(C)[C@H]3CC[C@]12C; TTDA(Palmitoyl) = CCCCCCCCCCCCCCCC(=O)NCCCOCCOCCOCCCN*; PEG12 = NCCOCCOCCOCCOCCOCCOCCOCCOCCOCCOCCOCCOCCC(=O)O; dDip = N[C@@H](C(=O)O)C(c1ccccc1)c1ccccc1; Dip = N[C@H](C(=O)O)C(c1ccccc1)c1ccccc1; Palmitoyl = CCCCCCCCCCCCCCCC(=O)*; β3hF = N[C@H](CC(=O)O)Cc1ccccc1; NMeD = CN[C@@H](CC(=O)O)C(=O)O; β3hP = O=C(O)C[C@@H]1CCCN1; AEEEA = NCCOCCOCCOCC(=O)O; Dap = NC[C@H](N)C(=O)O

Experiments:
[1] = tested on: C57/Bl6J mice; test: Serum iron assay in mice on low-iron diet, 4 hours after peptide; type: in vivo, mouse; design: key to active in vivo: *active in vivo; conditions: for active in vivo: asterisk at the EC50 value of Table 1
Protocol: The decrease in serum iron after peptide administration is the principal measure of hepcidin activity. Thus, as provided herein, the hepcidin activity of selected peptides of the present invention were assayed in vivo by measuring serum iron in test subjects. Briefly, C57/Bl6J mice were maintained on NIH 31 rodent diet (333 parts per million (ppm) iron; Harlan Teklad, Indianapolis, Ind.). Two weeks before the experiment, the mice were switched to a diet containing about 2-4 ppm iron (Harlan Teklad, Indianapolis, Ind.) in order to suppress endogenous hepcidin. Peptide stocks were diluted to desired concentrations in sterile phosphate buffered saline (PBS) or other diluents as described next. Mice were subjected to the following treatments: (a) Injected intraperitoneally either with 100 μl PBS (control) or with 50 μg peptide in 100 μl PBS; (b) Injected with 100 μl of peptide (or PBS) mixed with 500 μg empty liposomes COATSOME EL series (NOF, Tokyo, Japan) (prepared as per manufacturer's recommendation); (c) Injected with 100 μl peptides (or PBS) solubilized with SL220 solubilization agent (NOF, Tokyo, Japan); (d) Gavaged with 250 μl of peptide (or PBS) in 1× solvent (Cremophor EL (Sigma)/ethanol/PBS; (12.5:12.5:75)). Mice were sacrificed 4 hours later, blood was collected by cardiac puncture, and serum was separated using MICROTAINER tubes (Becton Dickinson, Franklin Lakes, N.J.). Serum iron was determined by using a colorimetric assay (Diagnostic Chemicals, Oxford, Conn.), which was modified for the microplate format so that 10 μl serum was used per measurement. The results were expressed as the percentage of decrease in serum iron when compared with the average value of serum iron levels in PBS-treated mice.

[2] = target: T1, ferroportin tagged at the C-terminus with green fluorescent protein (Fpn-GFP) (Mus musculus, UniProt Q9JHI9); test: Flow cytometry of ferroportin-GFP degradation in ECR293/Fpn-GFP cells; type: cell-based
T1 construct: expressed in transfected cells; host or cells: ECR293/Fpn-GFP (stably transfected, ponasterone-inducible)
T1 sequence (Q9JHI9 1-570): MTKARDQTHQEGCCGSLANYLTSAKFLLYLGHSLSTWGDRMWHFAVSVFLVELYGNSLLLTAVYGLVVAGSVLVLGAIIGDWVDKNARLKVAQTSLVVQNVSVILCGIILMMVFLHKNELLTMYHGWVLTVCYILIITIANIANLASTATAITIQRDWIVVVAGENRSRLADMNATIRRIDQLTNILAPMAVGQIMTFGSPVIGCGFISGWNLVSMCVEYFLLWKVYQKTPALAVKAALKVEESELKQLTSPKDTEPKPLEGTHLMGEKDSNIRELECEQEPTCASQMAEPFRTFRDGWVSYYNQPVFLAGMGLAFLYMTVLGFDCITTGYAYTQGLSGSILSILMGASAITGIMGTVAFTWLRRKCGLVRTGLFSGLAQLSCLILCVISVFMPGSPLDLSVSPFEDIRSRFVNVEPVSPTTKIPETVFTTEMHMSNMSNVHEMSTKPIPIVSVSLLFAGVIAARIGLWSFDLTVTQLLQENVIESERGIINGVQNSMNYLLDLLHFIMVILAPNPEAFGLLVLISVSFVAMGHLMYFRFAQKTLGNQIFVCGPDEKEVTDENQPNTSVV
Protocol: In vitro activity may be measured by the dose-dependent loss of fluorescence of cells engineered to display ferroportin fused to green fluorescent protein as in Nemeth et al. (2006) Blood 107:328-33. Aliquots of cells are incubated for 24 hours with graded concentrations of a reference preparation of Hep25 or a mini-hepcidin. As provided herein, the EC50 values are provided as the concentration of a given compound (e.g. peptide) that elicits 50% of the maximal loss of fluorescence generated by the reference Hep25 preparation.
Mutational studies indicate that C326, the cysteine residue at position 326 of human ferroportin, is the critical residue involved in binding hepcidin. Thus, various N-terminal fragments of Hep25 containing a thiol, i.e. Hep 4-7, Hep3-7, Hep3-8, Hep3-9, Hep1-7, Hep1-8, Hep1-9, and Hep1-10 C7A, were chemically synthesized, refolded and their activities relative to Hep25 were assayed using flow-cytometric quantitation of the ferroportin-GFP degradation, iron efflux estimation based on measurements of cellular ferritin, and radioisotopic iron efflux studies.
The activity of peptides of the present invention was measured by flow cytometry as previously described. See Nemeth et al. (2006) Blood 107:328-333, which is herein incorporated by reference. ECR293/Fpn-GFP, a cell line stably transfected with a ponasterone-inducible ferroportin construct tagged at the C-terminus with green fluorescent protein was used. See Nemeth et al. (2004) Science 306:2090-2093, which is herein incorporated by reference. Briefly, the cells were plated on poly-D-lysine coated plates in the presence of 20 μM FAC, with or without 10 μM ponasterone. After 24 hours, ponasterone was washed off, and cells were treated with peptides for 24 hours. Cells were then trypsinized and resuspended at 1×10^6 cells/ml, and the intensity of green fluorescence was analyzed by flow cytometry. Flow cytometry was performed on FAC SCAN (fluorescence activated cell scanner) Analytic Flow Cytometer (Becton Dickinson, San Jose, Calif.) with […] version 3.3 software (Becton Dickinson). Cells not induced with ponasterone to express Fpn-GFP were used to establish a gate to exclude background fluorescence. Cells induced with ponasterone, but not treated with any peptides, were used as the positive control. Each peptide was tested over the range of concentrations (0, 0.01, 0.03, 0.1, 0.3, 1, 3 and 10 μM). Each peptide treatment was repeated independently 3 to 6 times. For each concentration of peptide, the results were expressed as a fraction of the maximal activity (FHep25) of Hep25 (in the dose range 0.01-10 μM), according to the formula 1−((Fx−FHep25)/(Funtreated−FHep25)), where F was the mean of the gated green fluorescence and x was the peptide.

[3] = tested on: mouse; test: Activity at 20 nmoles/mouse: serum iron 4 hours after injection versus solvent (Tables 3 and 4); type: in vivo; design: key: Y: “Active” means that at 4 hours after injection serum iron in peptide-injected mice decreased statistically significantly (p < 0.05) compared to solvent-injected mice; Y*: Exhibits detectable and reproducible activity at about 50% lower than the most active compounds in Table 3 and 4; conditions: Table 3, intraperitoneal

Structure (SMILES): CC[C@@H](C)[C@@H](NC(=O)[C@@H](Cc1ccccc1)NC(=O)CCOCCOCCOCCOCCOCCOCCOCCOCCOCCOCCOCCOCCNC(=O)[C@@H](CC(=O)O)NC(=O)CC[C@@H](C)[C@H]1CC[C@H]2[C@@H]3[C@@H](O)C[C@@H]4C[C@H](O)CC[C@]4(C)[C@H]3CC[C@]12C)C(=O)N[C@H](CS)C(=O)N[C@@H](C(=O)N1CCC[C@@H]1C(=O)N[C@H](Cc1ccccc1)C(=O)N[C@H](Cc1c[nH]cn1)C(=O)N[C@@H](C(=O)N[C@H](CC(=O)O)C(N)=O)[C@H](C)O)[C@H](C)CC [PR24] (Ursodeoxycholyl-[dD][PEG12][dF][dI][dC][dI][dP][dF][dH][dT][dD]-NH2)
active in vivo [1]: *

EC50 ([2]; Table 1, 24 h peptide treatment, 50% of maximal loss of fluorescence by Hep25, read-out: EC50): 20 nM
Structure (SMILES): CCCCCCCCCCCCCCCC(=O)NCCOCCOCCOCCOCCOCCOCCOCCOCCOCCOCCOCCOCCC(=O)N[C@H](Cc1ccccc1)C(=O)N[C@@H](C(=O)N[C@H](CS)C(=O)N[C@@H](C(=O)N1CCC[C@@H]1C(=O)N[C@H](Cc1ccccc1)C(=O)N[C@H](Cc1c[nH]cn1)C(=O)N[C@@H](C(=O)N[C@H](CC(=O)O)C(N)=O)[C@H](C)O)[C@H](C)CC)[C@H](C)CC [PR27]
serum iron ([1]; 20 nmoles i.p. in PBS): comparable to that caused by i.p. administration of 20 nmoles Hep25
serum iron ([1]; 200 nmoles i.p. in PBS): even greater decrease
serum iron ([1]; 200 nmoles oral by gavage in Cremophor EL solution): caused a decrease in serum iron
active in vivo [1]: *

Structure (SMILES): CCCCCCCCCCCCCCCC(=O)NC[C@H](NC(=O)CCCCCCCCCCCCCCC)C(=O)NCCOCCOCCOCCOCCOCCOCCOCCOCCOCCOCCOCCOCCC(=O)N[C@H](Cc1ccccc1)C(=O)N[C@@H](C(=O)N[C@H](CS)C(=O)N[C@@H](C(=O)N1CCC[C@@H]1C(=O)N[C@H](Cc1ccccc1)C(=O)N[C@H](Cc1c[nH]cn1)C(=O)N[C@@H](C(=O)N[C@H](CC(=O)O)C(N)=O)[C@H](C)O)[C@H](C)CC)[C@H](C)CC [PR28] (Palmitoyl-[Dap](Palmitoyl)[PEG12][dF][dI][dC][dI][dP][dF][dH][dT][dD]-NH2)
serum iron ([1]; 20 nmoles i.p. in liposomal solution): lesser ability to decrease serum iron than PR27

Structure (SMILES): CCCCCCCCCCCCCCCC(=O)NCCCOCCOCCOCCCNC(=O)COCCOCCOCCNC(=O)C[C@H](Cc1ccccc1)NC(=O)[C@H](CCCNC(=N)N)NC(=O)[C@H](CS)NC(=O)[C@H](CCCNC(=N)N)NC(=O)C[C@@H]1CCCN1C(=O)[C@@H](NC(=O)[C@H](Cc1c[nH]cn1)NC(=O)[C@@H](NC(=O)[C@H](CC(=O)O)NC)[C@@H](C)O)C(c1ccccc1)c1ccccc1 [PR57] (H-[NMeD]TH[Dip][β3hP]RCR[β3hF][AEEEA]-{TTDA(Palmitoyl)}; N-terminus and C-terminus assumed)
Active @ 20 nmoles/mouse IP [3]: Y

Structure (SMILES): CCCCCCCCCCCCCCCC(=O)NCCCOCCOCCOCCCNC(=O)COCCOCCOCCNC(=O)[C@H](Cc1ccccc1)NC(=O)C1(NC(=O)[C@H](CS)NC(=O)C2(NC(=O)[C@@H]3CCCN3C(=O)[C@@H](NC(=O)[C@H](Cc3c[nH]cn3)NC(=O)[C@@H](NC(=O)CNCC(=O)O)[C@@H](C)O)C(c3ccccc3)c3ccccc3)CCCCC2)CCCCC1 [PR60]
Active @ 20 nmoles/mouse IP [3]: Y*

Structure (SMILES): CCCCCCCCCCCCCCCC(=O)NCCOCCOCCOCCOCCOCCOCCOCCOCCOCCOCCOCCOCCC(=O)N[C@@H](C(=O)N[C@@H](C(=O)N[C@H](CS)C(=O)N[C@@H](C(=O)N1CCC[C@@H]1C(=O)N[C@@H](C(=O)N[C@H](Cc1c[nH]cn1)C(N)=O)C(c1ccccc1)c1ccccc1)[C@H](C)CC)[C@H](C)CC)C(c1ccccc1)c1ccccc1 [PR50, R4-Dpa-I-C-I-P-Dpa-H] ({Palmitoyl-PEG12}-[dDip][dI][dC][dI][dP][dDip][dH]-NH2)
EC50 ([2]; read-out: EC50 (nM) in vitro, Table 3): < 10 nM

Structure (SMILES): CC[C@H](C)[C@H](NC(=O)[C@H](CS)NC(=O)[C@@H](NC(=O)[C@@H]1CCCN1C(=O)[C@H](Cc1ccccc1)NC(=O)[C@H](Cc1c[nH]cn1)NC(=O)[C@@H](NC(=O)[C@@H](N)CC(=O)O)[C@@H](C)O)[C@@H](C)CC)C(=O)N[C@@H](Cc1ccccc1)C(N)=O [Hep9]
serum iron ([1]; 50 μg per mouse i.p. in PBS, after 4 hours): did not result in a serum iron decrease

Structure (SMILES): N=C(N)NCCC[C@@H]1NC(=O)C2CCC(CC2)CNC(=O)[C@@H](C(c2ccccc2)c2ccccc2)NC(=O)C2CCN(CC2)C(=O)[C@@H](N)CSSCCNC(=O)[C@H](C(c2ccccc2)c2ccccc2)NC(=O)C2CCN(CC2)C(=O)C2CCC(CC2)CNC1=O [PR-1]
EC50 ([2]; read-out: EC50): 1500 nM
